# Reference: patent US7550613B2, “Compounds” (Pronova Biopharma Norge AS, priority 2005, dated 2009)
# Tests used:
# [1] = Analysis of intracellular free fatty acids in liver tissue (RP-HPLC MS/MS); assay type: in vivo, adipose prone mice of the C57BL/6J strain; conditions: FIG. 4; 1.5% of total fat content
# Procedure: In the first block of experiments (see FIG. 2) liver tissue from animals fed PRB-1,2,5, and 7 was analysed with respect to free unesterified fatty acids. The animals were recruited from the fifth block of experiments (pharmacodynamic effects of DHA derivatives in an animal model of metabolic syndrome). The animals had been given DHA ([…] of fat content of the diet) or the DHA-derivatives (1.5% of the fat content in their diet) for 8 weeks and were supposed to be in a steady-state situation with stable levels of DHA and the DHA-derivatives intracellularily. Liver tissue was chosen due to the fact that the metabolisation rate is very high in liver.
# The liver samples were homogenized in cold PBS buffer, and extracted immediately with chloroform:methanol (2:1) containing 0.2 mM butylated hydroxytoluene (BHT) using cis-10-heptadecenoic acid as internal standard. […] Total protein content was measured using Bio-Rad method after homogenization.
# Agilent 1100 system was used for reverse phase column (Supelco Ascentis C18 column, 25 cm×4.6 mm, i.d. 5 μm) separation of DHA and its PRB derivatives within 22 min. […] The column elute was identified and quantified in the negative electrospray ionisation applying multiple reaction monitoring mode by triple tandem quadrapole mass/mass (ABI Qtrap-4000). […] The quadratic regression standard curve was used for quantification after internal standard calibration. […]
# [2] = Effect of DHA derivatives in adipose prone mice during 4 months of dietary interventions (Example 5a); assay type: in vivo, male C57BL/6 mice; conditions: for Body wt. gain / Body weight / NEFA / Insulin / TAGs: 4 months; for Body weight: * = significant vs cHF (P<0.05); for AUCglucose: intraperitoneal glucose tolerance test; for NEFA: non-esterified fatty acids; for Insulin: plasma; for TAGs: serum triglycerides
# Procedure: All experiments were performed on male C57BL/6 mice, either a substrain C57BL/N (supplier: Charles River, Germany, n=160, experiments A-C, see below), or a substrain C57BL/6J (supplier: the Jackson laboratory, Bar Harbor, Me., USA, n=32, experiment D). Total numbers of animals used were higher (n=170 and 36, respectively), because of culling. In the latter case, animals were bred for several generations (<20) at the Institute of Physiology. At the beginning of the treatment, animals were 14-week-old and their body weight range was 23.6-27.1 g. One week before the study start, animals were sorted according to their body weight and assigned to subgroups (n=8) of similar mean body weight. This method allowed for culling of about 5-10% of animals showing the lowest and highest body weight, respectively. The animals eliminated from the study at this stage were sacrificed by cervical dislocation. Complete health check of mice was performed by the supplier Charles River and at the start of study serological tests were performed by ANLAB (Prague, Czech Republic). In addition, regular health checks were performed in the animal house in 3-mo-intervals using sentinel mice and serological examinations (ANLAB). In all the tests, the animals were free of specific pathogens.
# • (i) Chow diet (ssniff R/M-H from SSNIFF Spezialdieten Gmbh, Soest, Germany; see also http://ssniff.de) with protein, fat and carbohydrate forming 33, 9, and 58 energy %, respectively • (ii) High-fat diet prepared in the laboratory (cHF diet) with protein, fat and carbohydrate forming 15, 59, and 26 energy %, respectively, and well characterized fatty acid composition (with most of the lipids coming from corn oil; see Ruzickova 2004) • (iii) cHF diets in which 0.15, 0.5, and 1.5% of fat (specifically the corn oil constituent) was replaced by various PRB-compounds, namely PRB1, PRB2, PRB5, PRB7, and PRB8, or by DHA. All these compounds were in the form of ethyl esters, provided by Pronova Biocare a.s. in sealed containers. Chemical composition of the PRB-compounds was unknown to the laboratory performing the experiments (Institute of Physiology, Academy of Sciences Prague, Czech Republic).
# The study was based on 4 individual experiments. In each of the experiments, different PRB-compounds (or DHA, respectively) admixed to cHF diet in three different concentrations (0.15, 0.5, and 1.5% of the fat content) were tested. In each experiment, a subgroup of plain cHF diet-fed mice was included and served as a control. Mice were caged in groups of 4 and fed standard chow diet until 3 mo of age, when animals (n=8-13) were randomly assigned to the different test diets. After 2 mo on this new diet (at 5 mo of age), animals were fasted overnight and in the morning, intraperitoneal Glucose Tolerance Test (GTT) was performed. Animals were sacrificed after 4 months on the experimental diets, at 7 mo of age, and the end-point analysis were performed.
# [3] = Histological analysis of tissue samples, liver fat (Example 5c); assay type: in vivo, C57BL/6 mice; conditions: eosin-hematoxylin; control animals fed high fat diet had fat liver
# Text: Tissue samples from animals in the experiments with DHA derivatives was histologically analysed. After paraffination, tissue samples from liver, adipose tissue, skeletal muscle, pancreas, and kidney were stained with eosin-hematoxylin.
compound,measurement,setting,value
"CC/C=C\C/C=C\C/C=C\C/C=C\C/C=C\C/C=C\CC(SCC)C(=O)OCC (stereo not drawn) [PRB-7, α-tioethyl docosahexaenoic acid ethyl ester]",intracellular concentration of DHA in liver tissue from animals given the PRB,[1],significantly higher level
same,Fasted glucose,[2]; 0.15% concentration,141 ± 9 mg/dL
same,Fasted glucose,[2]; 0.5% concentration,152 ± 6 mg/dL
same,Fasted glucose,[2]; 1.5% concentration,120 ± 9 mg/dL
same,Body wt. gain,[2]; 0.15% concentration,23.2 ± 0.7 grams
same,Body weight,[2]; 0.15% concentration,47.4 ± 0.8* grams
same,Body wt. gain,[2]; 0.5% concentration,24.8 ± 0.8 grams
same,Body weight,[2]; 0.5% concentration,48.8 ± 0.9 grams
same,Body wt. gain,[2]; 1.5% concentration,21.7 ± 0.9 grams
same,Body weight,[2]; 1.5% concentration in cHF diet,45.9 ± 1.1* grams
same,AUCglucose,[2]; 0.15% concentration,1425 ± 97 mM × 180 min
same,AUCglucose,[2]; 0.5% concentration,1674 ± 203 mM × 180 min
same,AUCglucose,[2]; 1.5% concentration,1122 ± 73 mM × 180 min
same,NEFA,[2]; 0.15% concentration,0.85 ± 0.06 mmol/L
same,NEFA,[2]; 0.5% concentration,0.87 ± 0.04 mmol/L
same,NEFA,[2]; 1.5% concentration,0.82 ± 0.06 mmol/L
same,Insulin,[2]; 0.15% concentration,3.76 ± 0.72 ng/mL
same,Insulin,[2]; 0.5% concentration,4.10 ± 0.57 ng/mL
same,Insulin,[2]; 1.5% concentration,4.42 ± 0.87 ng/mL
same,TAGs,[2]; 0.15% concentration,1.41 ± 0.11 mmol/L
same,TAGs,[2]; 0.5% concentration,1.42 ± 0.08 mmol/L
same,TAGs,[2]; 1.5% concentration,1.15 ± 0.08 mmol/L
same,"fat liver (liver steatosis), histology",[3],low degree of fat liver
